According to ChEMBL document CHEMBL1155966, “Efficient synthesis of (+/-)-parasitenone, a novel inhibitor of NF-kappaB” (Bioorg Med Chem Lett, 2009):
Calls of active or inactive are those of the source. No cut-off for these calls is given here.

What was measured:
RAW264.7 [1] = experiment: Cytotoxicity against mouse RAW264.7 cells assessed as reduction of cell viability at 30 ug/ml after 48 hrs by trypan blue exclusion assay; type: cell-based; conditions: raw264.7, 48 h
RAW264.7 [2] = experiment: Antiinflammatory activity in mouse RAW264.7 cells assessed as inhibition of LPS-stimulated nitric oxide production at 10 ug/ml treated for 1 hr before LPS challenge measured after 24 hrs by Griess reagent method; type: functional, cell-based
RAW264.7 [3] = experiment: Inhibition of NF-kappaB transcriptional activity in LPS-stimulated mouse RAW264.7 cells treated for 1 hr before LPS challenge measured after 6 hrs by luciferase reporter gene assay; type: cell-based
RAW264.7 [4] = experiment: Antiinflammatory activity in mouse RAW264.7 cells assessed as inhibition of LPS-stimulated iNOS expression treated for 1 hr before LPS challenge measured after 24 hrs by immunoblotting; type: functional, cell-based
RAW264.7 [5] = experiment: Antiinflammatory activity in mouse RAW264.7 cells assessed as inhibition of LPS-stimulated nitric oxide production treated for 1 hr before LPS challenge measured after 24 hrs by Griess reagent method; type: functional, cell-based
RAW264.7 [6] = experiment: Growth inhibition of mouse RAW264.7 cells at 10 ug/ml after 48 hrs by trypan blue exclusion assay; type: cell-based; conditions: raw264.7, 48 h
[7] = test system: Radical scavenging activity; experiment: Antioxidant activity assessed as DPPH radical scavenging activity; type: functional
[8] = Antioxidant activity assessed as peroxynitrite radical scavenging activity; type: functional

SMILES	Activity (RAW264.7 [1])	Activity (RAW264.7 [2])	Activity (RAW264.7 [3])	Activity (RAW264.7 [4])	Activity (RAW264.7 [5])	Activity (RAW264.7 [6])	IC50 [7] [µM]	IC50 [8] [µM]
O=C1C=C(CO)[C@H](O)[C@@H]2O[C@H]12 [PARASITENONE]	Active	Active	Active	Dose-dependent effect	Dose-dependent effect	Active		
O=C(O)c1ccccc1O		inactive						
O=C(NC1=CC(=O)[C@H]2O[C@H]2[C@H]1O)c1ccccc1O [DEHYDROXYMETHYLEPOXYQUINOMICIN]			Active				57	52.6
